In patent US20100247564A1, “METHODS AND COMPOSITIONS FOR THE USE OF SARGASSUM FUSIFORME FOR THE INHIBITION OF HIV-1 INFECTION” (priority 2007, published 2010):
Like-named read-outs stand apart in the source and are kept apart here.

Columns and labels:
BlaM-Vpr-X4-tropic NL4-3 = assay: microbe, parasite or virus in culture; type: cell-based, HIV-1
[1] = test system: cell fusion (anti-HIV activity); assay: Inhibition of cell fusion by individual fatty acids; type: cell-based; settings: Human immunodeficiency virus 1, read-out: percentage of inhibition of cell fusion; for inhibition at 1 µg/mL: 1 μg/ml; for inhibition at 5 µg/mL: 5 μg/ml
Procedure: Anti-HIV activity of the individual fatty acids was tested at four different concentrations. The values given in Table 1 represent the percentage of inhibition of cell fusion in the presence of each fatty acid.

sCD4 [2] = molecular target: T1, sCD4 (Homo sapiens, UniProt P01730); assay: Saturation transfer difference NMR (STD-NMR) binding to sCD4; settings: NMR buffer with 20% d6-DMSO, room temperature
T1 construct: soluble CD4 (sCD4) protein; purchased Progenics Pharmaceuticals
Procedure: FIGS. 15A-E show in vitro binding experiments of sCD4 with PA. FIG. 15A is a homonuclear NMR spectrum of 100 μM PA in the NMR buffer (10 mM KPO4 buffer, pH 7.0, 20% d6-DMSO, and 80% D2O). […] Tryptophan fluorescence was measured using an excitation wavelength of 280 nm. An increase of PA causes a red shift of 2 nm and quenching of the tryptophan fluorescence of sCD4.
We used a one-dimensional saturation transfer difference NMR (STD-NMR) experiment to characterize the binding of PA to sCD4 in vitro. […]
To perform the STD-NMR experiment, we used commercially available sCD4 (200 μg, 4.4 nmol, Progenics Pharmaceuticals), which was exchanged into the NMR buffer (160 μl of D2O and 40 μl d6-DMSO, containing 10 mM KPO4 buffer, pH 7.0). […] The NMR data were processed and analyzed using Topspin 2.0 (Bruker).
During the STD-NMR experiment, we titrated increasing concentrations of PA into sCD4 solution, and observed PA binding to sCD4, as shown by an increase in the intensity of the ligand STD-NMR signal (FIGS. 15A and 15B). The intensity of the STD signal was quantified by calculating the difference between the intensity of one signal in the off-resonance NMR spectrum, or reference NMR spectrum (I0), and the intensity of a signal in the on-resonance NMR spectrum (Isat) for various concentrations of the ligand (FIG. 15C). […]

[3] = test system: HIV-1 (NL4-3) cell-to-cell fusion; assay: Cell-to-cell infection and syncytia formation in co-culture (infected CEM/1G5; infected 1G5/GHOST); settings: only 10^−6 M ddC
1G5 T cells = assay: Viability of HIV-1 infected 1G5 T cells (MTT uptake, trypan blue exclusion); type: cell-based; settings: 10^−6 M ddC
Procedure: FIGS. 2A-B show the dose response of HIV-1 inhibition and cell viability in T cells treated with S. fusiforme. […] The cells were washed 3 times and then returned to culture. On day 3 after infection, intracellular luciferase gene marker expression was measured from cell lysates adjusted to the same number of viable cells using an MTT assay (A).
FIGS. 3A-B show the time course of HIV-1 inhibition and viability in T cells. […] Cell viability was determined by trypan blue exclusion assay (B).
Next, we investigated the ability of S. fusiforme extracts to inhibit HIV-1 infection in 1G5 T cells. […] On day 3 after infection, equal numbers of viable cells were analyzed for intracellular luciferase expression and cell viability was measured using an MTT uptake assay (FIG. 2). HIV-1 inhibition was calculated by comparing treated and untreated cell cultures (both infected with HIV-1). […] Treatment with ddC blocked virus replication by over 98%. In parallel, we tested for MTT uptake by viable cells, which remained high regardless of the concentration of S. fusiforme extract used in treatment (FIG. 2B).
Infection was monitored by luciferase expression at specific time points after infection (FIG. 3A). […] Treatment with 2 mg/ml of S. fusiforme inhibited infection by 77, 99, and 99% on days 3, 5, and 7, respectively (FIG. 3A). Inhibition by ddC was 99% at each time point tested. […]

[4] = test system: CXCR4 tropic HIV-1 (NL4-3); assay: HIV-1 (NL4-3) replication in 1G5 T cells, luciferase expression; type: cell-based
[5] = test system: primary CCR5-tropic isolate ADA; assay: HIV-1 ADA infection of microglia, p24 ELISA; settings: Human immunodeficiency virus 1, Microglia, 72 h
Procedure: Either macrophages (A) or microglia (B) were treated for 24 hours with 1 mg/ml S. fusiforme or with 10^−6 M ddC, infected with primary CCR5-tropic isolate ADA at 0.2 pg of p24/cell for 2 hours, washed 3 times, and returned to culture. At the indicated time points after infection, HIV-1 expression was monitored by p24 production in cell-free supernatants by ELISA and the percent inhibition was calculated and plotted on the Y-axis.
Next, we treated fetal microglial cell cultures with either 1 mg/ml of S. fusiforme or 10^−6 M ddC and monitored infection kinetics by p24 production in cell-free supenatants at the indicated time points after infection (FIG. 5B).

recombinant HIV-1 RT = molecular target: T2, recombinant HIV-1 RT (Human immunodeficiency virus type 1 group M subtype B, UniProt P04585); assay: Cell-free fluorescent reverse transcriptase (RT) assay; type: biochemical; settings: 2-fold serial dilutions, two units recombinant HIV-1 RT
T2 construct: recombinant HIV-1 RT; purchased Ambion

S100A12 = molecular target: T3, S100A12 (Homo sapiens, UniProt P80511); assay: Dot blot binding of 14C-labeled PA to S100A12; settings: 100 μM 14C-PA
T3 sequence (P80511 1-92): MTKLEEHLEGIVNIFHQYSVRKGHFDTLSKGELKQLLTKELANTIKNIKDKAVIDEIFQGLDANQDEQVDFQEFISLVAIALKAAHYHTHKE
Procedure: (§1) FIGS. 14A-C show the inhibition of HIV-1 fusion and CD4 interaction upon PA treatment. […] The percent of infected cells is indicated inside each quadrant. Cells were loaded with CCF2/AM dye and fusion was analyzed by multiparameter flow cytometry using a violet laser for excitation of CCF, and gated from 10,000 cells. […] The percent inhibition was plotted on the y-axis. […] The dot-blot membrane was washed and exposed to film, which was then scanned and the dot-blot total pixel mean value (intensity*mm^2) was quantified and plotted on the y-axis.
(§2) To further test this hypothesis and reveal a possible physical interaction between PA and sCD4, we performed dot blot analysis with ^14C-labeled PA (^14C-PA) incubated together with increasing concentrations of sCD4, ubiquitin, or S100A12 proteins (FIG. 14C). PVDF membrane (BioRad) was pretreated with 100 μM PA for 1 hour at room temperature (RT). Indicated concentrations of each protein in 10 μl/well were run through the vacuum of the dot blot apparatus. The membrane was then incubated with 100 μM ^14C-labeled PA (^14C-PA) in 33% ethanol for 1 hour at room temperature, and then washed in 33% ethanol and exposed to film. Blot total pixel mean value intensity was quantified by Quantity One 4.6.1 software (BioRad).

ubiquitin = ubiquitin (Homo sapiens, UniProt P0CG47); assay: Dot blot binding of 14C-labeled PA to ubiquitin; settings: 100 μM 14C-PA
Procedure: as §1, §2

sCD4 [6] = molecular target: T1, sCD4; assay: Dot blot binding of 14C-labeled PA to sCD4; settings: 100 μM 14C-PA, increasing concentrations of sCD4
Procedure: as §1, §2

[7] = Human immunodeficiency virus 1, NL43, SUP-T1, read-out: inhibition of fusion

SMILES: c1cc(CN2CCCNCCNCCCNCC2)ccc1CN1CCCNCCNCCCNCC1 [AMD3100, reference compound]
- fusion positive cells (BlaM-Vpr-X4-tropic NL4-3; 250 nM AMD3100, 51.5% without treatment): 28.7%
- virus-positive cells (BlaM-Vpr-X4-tropic NL4-3; AMD3100 in the PA experiment, 37.6% untreated): 2.8%
- inhibition at 0.25 µM (BlaM-Vpr-X4-tropic NL4-3; [7]): 44.5%
- inhibition at 0.5 µM (BlaM-Vpr-X4-tropic NL4-3; [7]): 80%

SMILES: CCCCCCCCCCCCCC(=O)O [Myristic acid, myristic acid]
- inhibition at 1 µg/mL [1]: 8.8%
- inhibition at 5 µg/mL [1]: 26.4%
- STD-NMR signal on titration into sCD4 solution (sCD4 [2]): No STD-NMR signal was observed

SMILES: Nc1ccn([C@H]2CC[C@@H](CO)O2)c(=O)n1 [ddC, 2′,3′-didoxycytidine]
- inhibition of luciferase expression [3]: 69%
- cell viability compared with S. fusiforme-treated cultures (1G5 T cells): similar
- virus replication blocked ([4]; 10^−6 M ddC, day 3 after infection): over 98%
- inhibition at 1 µM ([4]; Human immunodeficiency virus 1, NL43, T-cell, read-out: inhibition of infection): 99%
- luciferase expression ([4]; ddC control culture, mock-treated 29,601 RLU): 587 RLU
- inhibition at 1 µM ([5]; read-out: virus inhibition, 10^−6 M ddC, after day 3): > 90%
- inhibition at 1 µM ([5]; read-out: virus inhibition, 10^−6 M ddC, day 3): 72%

SMILES: CCCCC/C=C\C/C=C\CCCCCCCC(=O)O [Linoleic acid, linoleic acid]
- RT inhibition (in words) (recombinant HIV-1 RT): potent RT inhibitors
- inhibition at 1 µg/mL [1]: 0%
- inhibition at 5 µg/mL [1]: 0%

SMILES: CCCCCCCC/C=C\CCCCCCCC(=O)O [Oleic acid, oleic acid]
- RT inhibition (in words) (recombinant HIV-1 RT): potent RT inhibitors
- inhibition at 1 µg/mL [1]: 0%
- inhibition at 5 µg/mL [1]: 0%

SMILES: CCCCCCCCCCCCCCCC(=O)O [^14C-PA]
- binding to S100A12 (dot blot) (S100A12): did not bind
- binding to ubiquitin (dot blot) (ubiquitin): did not bind
- binding to sCD4 (dot blot) (sCD4 [6]): dose-dependent
